{"source": "patent US9358238B2", "about": "“Method of enhancing the performance of broiler chickens” (Intervet Inc., priority 2012, dated 2016)", "key": {"Broiler chickens [1]": {"tested_on": "Broiler chickens", "conditions": "0, 5 and 10 mg/kg, 3 to 6 weeks of age; cited from earlier work"}, "Broiler chickens [2]": {"tested_on": "Broiler chickens", "conditions": "1 ppm for 18 days (28 to 46 days of age); cited from earlier work"}, "Japanese quails": {"tested_on": "Japanese quails", "conditions": "0, 0.2, 0.225, 0.25 mg/kg of live body weight, 21 days, birds at 26 days of age; cited from earlier work"}, "[3]": {"tested_on": "broiler chickens (Cobb 500 strain)", "test": "42 day floor pen study, performance response of broiler chickens fed zilpaterol for 7 or 14 days (Example 2)", "assay_type": "in vivo", "from_the_text": "“Feed efficiency” refers to: feed consumed (lbs)/total live body weight (lbs). “Adjusted Feed efficiency” refers to feed consumed (lbs)/(total live body weight (lbs)+body weight (lbs) of mortalities).\n“Average daily gain” refers to body weight gain (lbs)/number of days.\n“Breast weight” refers to breast weight (lbs) at slaughter.\n“Carcass yield” refers to carcass weight (lbs)/live body weight (lbs)×100.\n“Breast yield” refers to breast weight (lbs)/live body weight (lbs)×100.\nZilpaterol hydrochloride was fed to broiler chickens in a 42 day floor pen study to evaluate the performance response of zilpaterol compared to a non-medicated control group. Six zilpaterol treatment groups consisted of three concentration levels (1, 3, and 5 ppm) and two feeding durations (7 and 14 days) and were administered in feed plus a non medicated control group. A total of 1,680 broiler chickens were allocated by sex to 56 pens with 30 birds/pen, and 4 pens/sex/group (240 birds/group). The 7 day zilpaterol treatments began at day 35 and continued to day 42 of age. The 14 day zilpaterol treatments began at day 28 and continued until day 42 of age.\nPost-treatment, there were no statistically significant 2-way or 3-way interactions of sex with duration of treatment and concentration; therefore pooled results over sex are discussed. A summary of the performance response of broiler chickens fed various levels for zilpaterol (0, 1, 3, 5, ppm) and feeding durations (7, 14 days) compared to the control are shown in the following table:\nA total of 1,680 broiler chickens (Cobb 500 strain) were allocated by sex to 56 pens (28 pens of males, 28 pens of females) with 30 birds per pen according to a randomized complete block design during a 42 day study. The six zilpaterol treatment groups were in a 2×3 factorial arrangement with two feeding durations of 7 or 14 days (i.e., days 35-42 or 28-42 respectively) and three zilpaterol concentration levels of 1, 3, or 5 ppm plus an un-supplemented (negative) control group. Treatment groups were randomly assigned by sex to pens within each block."}, "Broiler chickens [4]": {"tested_on": "Broiler chickens", "test": "Broiler chickens fed zilpaterol daily at 1 ppm from day 8 to day 56 of age (Example 1)", "assay_type": "in vivo, chicken", "from_the_text": "Broiler chickens were fed zilpaterol every day at 1 ppm from day 8 until day 56 of age. The observed zilpaterol performance response was relatively small. In this study, non significant performance increases in Average Daily Gain (ADG) of 1.3-2.6% and Feed Efficiency (FE) of 0.6%-1.9% were reported."}, "chickens": {"tested_on": "chickens", "conditions": "skip a day feeding; 0, 0.2, 0.25, 0.3 mg/kg of live body weight, 20 days from 25 days of age; cited from earlier work"}, "[5]": {"conditions": "1 ppm in feed, 7 days (days 35-42)"}, "[6]": {"conditions": "1 ppm in feed, 14 days (days 28-42)"}, "[7]": {"conditions": "3 ppm in feed, 7 days (days 35-42)"}, "[8]": {"conditions": "3 ppm in feed, 14 days (days 28-42)"}, "[9]": {"conditions": "5 ppm in feed, 7 days (days 35-42)"}, "[10]": {"conditions": "5 ppm in feed, 14 days (days 28-42)"}, "[11]": {"conditions": "1 ppm every day, day 8 until day 56 of age, non significant"}}}
{"smiles": "CC(CCc1ccc(O)cc1)NCC(O)c1ccc(O)cc1", "note": "(stereo not drawn) [ractopamine]", "values": [{"measurement": "daily body weight gain", "setting": "Broiler chickens [1]", "result": "not significantly affected"}, {"measurement": "feed conversion", "setting": "Broiler chickens [1]", "result": "not significantly affected"}, {"measurement": "feed intake", "setting": "Broiler chickens [1]", "result": "not significantly affected"}]}
{"smiles": "CC(C)(C)NCC(O)c1cc(Cl)c(N)c(Cl)c1", "note": "(stereo not drawn) [Clenbuterol]", "values": [{"measurement": "improvement in average daily gain (ADG) above controls", "setting": "Broiler chickens [2]", "result": 3.3, "unit": "%"}, {"measurement": "improvement in feed efficiency (FE) above controls", "setting": "Broiler chickens [2]", "result": 3.0, "unit": "%"}]}
{"smiles": "CC(C)NC1CCn2c(=O)[nH]c3cccc(c32)C1O", "note": "(stereo not drawn) [Zilpaterol, 4,5,6,7-tetrahydro-7-hydroxy-6-(isopropylamino) imidazo[4,5,1-jk]-[1]benzazepin-2(1H)-one]", "values": [{"measurement": "feed conversion ratio", "setting": "Japanese quails", "result": "improved"}, {"measurement": "weight gain, final body weight, feed intake and carcass, thigh, breast liver and carcass weight", "setting": "Japanese quails", "result": "not a significant difference"}, {"measurement": "Improvement (%) of Average Daily Gain", "setting": "[3]; 0 vs 1 ppm, 7 days", "result": 5.4, "unit": "%"}, {"measurement": "Improvement (%) of Body Weight Day 42", "setting": "[3]; 0 vs 1 ppm, 7 days", "result": 2.1, "unit": "%"}, {"measurement": "Improvement (%) of Breast Weight", "setting": "[3]; 0 vs 1 ppm, 7 days", "result": 3.8, "unit": "%"}, {"measurement": "Improvement (%) of Carcass Yield", "setting": "[3]; 0 vs 1 ppm, 7 days", "result": 4.0, "unit": "%"}, {"measurement": "Improvement (%) of Feed Efficiency (FE)", "setting": "[3]; 0 vs 1 ppm, 7 days", "result": 8.0, "unit": "%"}, {"measurement": "Improvement (%) of Average Daily Gain", "setting": "[3]; 0 vs 1 ppm, 14 days", "result": 3.3, "unit": "%"}, {"measurement": "Improvement (%) of Body Weight Day 42", "setting": "[3]; 0 vs 1 ppm, 14 days", "result": 3.9, "unit": "%"}, {"measurement": "Improvement (%) of Breast Weight", "setting": "[3]; 0 vs 1 ppm, 14 days", "result": 4.2, "unit": "%"}, {"measurement": "Improvement (%) of Carcass Yield", "setting": "[3]; 0 vs 1 ppm, 14 days", "result": 1.8, "unit": "%"}, {"measurement": "Improvement (%) of Feed Efficiency (FE)", "setting": "[3]; 0 vs 1 ppm, 14 days", "result": 3.3, "unit": "%"}, {"measurement": "Improvement (%) of Average Daily Gain", "setting": "[3]; 0 vs 3 ppm, 7 days", "result": 18.5, "unit": "%"}, {"measurement": "Improvement (%) of Body Weight Day 42", "setting": "[3]; 0 vs 3 ppm, 7 days", "result": 3.9, "unit": "%"}, {"measurement": "Improvement (%) of Breast Weight", "setting": "[3]; 0 vs 3 ppm, 7 days", "result": 9.1, "unit": "%"}, {"measurement": "Improvement (%) of Carcass Yield", "setting": "[3]; 0 vs 3 ppm, 7 days", "result": 1.7, "unit": "%"}, {"measurement": "Improvement (%) of Feed Efficiency (FE)", "setting": "[3]; 0 vs 3 ppm, 7 days", "result": 25.9, "unit": "%"}, {"measurement": "Improvement (%) of Average Daily Gain", "setting": "[3]; 0 vs 3 ppm, 14 days", "result": 9.2, "unit": "%"}, {"measurement": "Improvement (%) of Body Weight Day 42", "setting": "[3]; 0 vs 3 ppm, 14 days", "result": 5.1, "unit": "%"}, {"measurement": "Improvement (%) of Breast Weight", "setting": "[3]; 0 vs 3 ppm, 14 days", "result": 16.1, "unit": "%"}, {"measurement": "Improvement (%) of Carcass Yield", "setting": "[3]; 0 vs 3 ppm, 14 days", "result": 2.9, "unit": "%"}, {"measurement": "Improvement (%) of Feed Efficiency (FE)", "setting": "[3]; 0 vs 3 ppm, 14 days", "result": 9.7, "unit": "%"}, {"measurement": "Improvement (%) of Average Daily Gain", "setting": "[3]; 0 vs 5 ppm, 7 days", "result": 23.8, "unit": "%"}, {"measurement": "Improvement (%) of Body Weight Day 42", "setting": "[3]; 0 vs 5 ppm, 7 days", "result": 4.1, "unit": "%"}, {"measurement": "Improvement (%) of Breast Weight", "setting": "[3]; 0 vs 5 ppm, 7 days", "result": 12.6, "unit": "%"}, {"measurement": "Improvement (%) of Carcass Yield", "setting": "[3]; 0 vs 5 ppm, 7 days", "result": 3.9, "unit": "%"}, {"measurement": "Improvement (%) of Feed Efficiency (FE)", "setting": "[3]; 0 vs 5 ppm, 7 days", "result": 33.7, "unit": "%"}, {"measurement": "Improvement (%) of Average Daily Gain", "setting": "[3]; 0 vs 5 ppm, 14 days", "result": 13.7, "unit": "%"}, {"measurement": "Improvement (%) of Body Weight Day 42", "setting": "[3]; 0 vs 5 ppm, 14 days", "result": 8.0, "unit": "%"}, {"measurement": "Improvement (%) of Breast Weight", "setting": "[3]; 0 vs 5 ppm, 14 days", "result": 12.6, "unit": "%"}, {"measurement": "Improvement (%) of Carcass Yield", "setting": "[3]; 0 vs 5 ppm, 14 days", "result": 2.8, "unit": "%"}, {"measurement": "Improvement (%) of Feed Efficiency (FE)", "setting": "[3]; 0 vs 5 ppm, 14 days", "result": 9.9, "unit": "%"}, {"measurement": "Body Weight Day 42", "setting": "[3]; [5]", "result": 4.816, "unit": "lb"}, {"measurement": "Breast Weight", "setting": "[3]; [5]", "result": 1.133, "unit": "lb"}, {"measurement": "Breast Yield", "setting": "[3]; [5]", "result": 23.91, "unit": "%"}, {"measurement": "Carcass Yield", "setting": "[3]; [5]", "result": 81.45, "unit": "%"}, {"measurement": "Feed Efficiency (FE) (Feed/Gain Ratio)", "setting": "[3]; [5]", "result": 3.831}, {"measurement": "Body Weight Day 42", "setting": "[3]; [6]", "result": 4.898, "unit": "lb"}, {"measurement": "Breast Weight", "setting": "[3]; [6]", "result": 1.138, "unit": "lb"}, {"measurement": "Breast Yield", "setting": "[3]; [6]", "result": 24.27, "unit": "%"}, {"measurement": "Carcass Yield", "setting": "[3]; [6]", "result": 79.79, "unit": "%"}, {"measurement": "Feed Efficiency (FE) (Feed/Gain Ratio)", "setting": "[3]; [6]", "result": 2.632}, {"measurement": "Body Weight Day 42", "setting": "[3]; [7]", "result": 4.902, "unit": "lb"}, {"measurement": "Breast Weight", "setting": "[3]; [7]", "result": 1.191, "unit": "lb"}, {"measurement": "Breast Yield", "setting": "[3]; [7]", "result": 23.82, "unit": "%"}, {"measurement": "Carcass Yield", "setting": "[3]; [7]", "result": 79.71, "unit": "%"}, {"measurement": "Feed Efficiency (FE) (Feed/Gain Ratio)", "setting": "[3]; [7]", "result": 3.085}, {"measurement": "Body Weight Day 42", "setting": "[3]; [8]", "result": 4.956, "unit": "lb"}, {"measurement": "Breast Weight", "setting": "[3]; [8]", "result": 1.268, "unit": "lb"}, {"measurement": "Breast Yield", "setting": "[3]; [8]", "result": 25.11, "unit": "%"}, {"measurement": "Carcass Yield", "setting": "[3]; [8]", "result": 80.62, "unit": "%"}, {"measurement": "Feed Efficiency (FE) (Feed/Gain Ratio)", "setting": "[3]; [8]", "result": 2.301}, {"measurement": "Body Weight Day 42", "setting": "[3]; [9]", "result": 4.910, "unit": "lb"}, {"measurement": "Breast Weight", "setting": "[3]; [9]", "result": 1.230, "unit": "lb"}, {"measurement": "Breast Yield", "setting": "[3]; [9]", "result": 26.12, "unit": "%"}, {"measurement": "Carcass Yield", "setting": "[3]; [9]", "result": 81.41, "unit": "%"}, {"measurement": "Feed Efficiency (FE) (Feed/Gain Ratio)", "setting": "[3]; [9]", "result": 2.760}, {"measurement": "Body Weight Day 42", "setting": "[3]; [10]", "result": 5.093, "unit": "lb"}, {"measurement": "Breast Weight", "setting": "[3]; [10]", "result": 1.230, "unit": "lb"}, {"measurement": "Breast Yield", "setting": "[3]; [10]", "result": 24.20, "unit": "%"}, {"measurement": "Carcass Yield", "setting": "[3]; [10]", "result": 80.51, "unit": "%"}, {"measurement": "Feed Efficiency (FE) (Feed/Gain Ratio)", "setting": "[3]; [10]", "result": 2.295}, {"measurement": "body weight increase versus controls", "setting": "[3]; 5 ppm, 14 days (Z5-14d) versus Z0-0d, day 42", "result": 0.38, "unit": "lb"}, {"measurement": "reduction of time to reach the target market weight", "setting": "[3]; 5 ppm, 14 days, 0.38 lb/0.174 lb/day", "result": "approximately 2 days"}, {"measurement": "effect on mean mortality rates compared to the control group", "setting": "[3]; any level (1, 3, 5 ppm), either feeding duration (7 or 14 day)", "result": "no significant effect"}, {"measurement": "breast yield, average of the zilpaterol treatment groups", "setting": "[3]; average over 1, 3, 5 ppm and 7, 14 days, control 25.46%", "result": 24.57, "unit": "%"}, {"measurement": "carcass yield improvement compared to control", "setting": "Broiler chickens [4]; 1 ppm daily for 7 weeks, P<0.01", "result": 2, "unit": "%"}, {"measurement": "performance increase in Average Daily Gain (ADG)", "setting": "Broiler chickens [4]; [11]", "result": "1.3-2.6%"}, {"measurement": "performance increase in Feed Efficiency (FE)", "setting": "Broiler chickens [4]; [11]", "result": "0.6%-1.9"}, {"measurement": "feed efficiency", "setting": "chickens", "result": "improved"}]}
